Two compounds from patent US10066004B2 (ARIZONA CANCER THERAPEUTICS, LLC, priority 2010, dated 2018) can be followed below.

The structures appear in SMILES notation.

Holding throughout (format): cell-based
Assay [1] relates to MDA-MB-468 cells. Put plainly: Intracellular ROS by flow cytometry, DCFH-DA. To be noted: 20 μmol/l EJ1, 0.5 mmol/l NAC. As to the method: (§1) (a) MDA-MB-468 cells were incubated in serum-free media with 200 nmol/l MitoTracker Red CMXRos and 5 μg/ml Hoechst 33342 nuclear stain, followed by either 20 μmol/l CP (A-B′) or 20 μmol/l EJ1 (C-D′), and imaged at 0 minutes (A, A′; and C, C′) or at 5 minutes (B, B′; and D, D′). (b) MDA-MB-468 cells were incubated with 1 μmol/l JC-1, followed by 20 μmol/l CP, 20 μmol/l EJ1, or 50 μmol/l CCCP. Results were calculated as the ratio of the 514/590 nm to 514/529 nm fluorescences and the ratio for CP-treated sample was set as 1. *P<0.05, Student's t-test. Error bars, mean±SD. (c) T47D cells were treated with MitoTracker (shown in D-F and F′) and Hoechst 33342 as in (a) and incubated with 20 μmol/l FITC-labeled EJ1 (shown in A-C and C′). […] Cells were then sorted by flow cytometer and analyzed by Cellquest Pro 4.0 software. The results are expressed as the percentage of DCFH fluorescence-positive cells. *P<0.05, Student's t-test. […]
Generation of intracellular ROS was evaluated by flow cytometry using the 2′,7′-dichlorofluorescein diacetate probe (Invitrogen). Fluorescent cells were analyzed by a FACScan flow cytometer (BD Biosciences) at the Flow Cytometry Shared Service in the Arizona Cancer Center, and the excitation/emission wavelengths were set at 488 and 525 nm, respectively.
Background: In flow cytometry, cells or beads pass a laser one at a time.

Assay [2] deals with MDA-MB-468 cells. Put plainly: MTT viability, EJ1 in combination with pathway inhibitors or ROS scavenger. The following applies: MDA-MB-468, 20 μmol/l EJ1 plus inhibitor. Here is the method: (a) MDA-MB-468 cells were treated with either 20 μmol/l CP (A-D) or 20 μmol/l EJ1 (E-H) for 0 minutes (A, E), 15 minutes (B, F), 60 minutes (C, G), or 16 hours (D, H). Arrows indicate membrane blebs and arrowheads indicate intracellular vacuoles. (b) BxPC3 cells were serum starved overnight, then treated with 20 μmol/l EJ1 and 50 ng/ml Texas-Red-labeled EGF, and imaged for 30 minutes with an Olympus IX71 deconvolution microscope. Panels A-F are bright field images, D′-F′ are red channel images (Texas-Red-labeled EGF). Arrowheads indicate locations of EGF accumulation on membrane protrusions. (c) Diagram depicts Ca^2+/CaM-regulated signaling pathway, and inhibitors acting at different targets are indicated. (d) MDA-MB-468 cells were pretreated with 50 μmol/l W-13 (D-F), 10 μmol/l ML-7 (G-I), or 10 μmol/l Y-27632 (J-L) in complete medium at 37° C. for 30 minutes and then treated with vehicle, 20 μmol/l CP, or 20 μmol/l EJ1 in combination with W-13, ML-7, or Y-27632 in complete medium at 37° C. for 15 minutes. Images represent the bright field images. Arrows indicate membrane blebbing. (e) MDA-MB-468 cells were untreated (UNTX) or treated with water (Vehicle), 20 μmol/l EJ1, 10 μmol/l Y-27632, or 10 μmol/l ML-7 alone or EJ1 in combination with Y-27632 or ML-7, and the viability was assessed by the MTT assay. **P<0.01 (Student's t-test). Error bars, mean±SD. (f) MDA-MB-468 cells were either in serum-free medium (SF) or stimulated with 100 ng/ml EGF (EGF) and then incubated with water (Vehicle), 20 μmol/l CP, 20 μmol/l EJ1, 2 μmol/l ionomycin, 50 μmol/l W-13, 100 μmol/l KN-93, or EJ1 in combination with ionomycin for 15 minutes. Lysates were immunoblotted with antibodies as indicated. (g) Stable, neomycin-selected NIH3T3 cell lines were created, expressing either Rac1 wild-type (Rac1-WT) or Rac1 constitutively active mutant (Rac1-Q61L). Cells were treated with water (Vehicle), 20 μmol/l CP, or 20 μmol/l EJ1, and the viability was assessed by MTT. ***P<0.001 (Student's t-test). Error bars, mean±SD.
as §1, with “mean±SD.” for “mean±SD. (c) T47D cells were treated with MitoTracker (shown in D-F and F′) and Hoechst 33342 as in (a) and incubated with 20 μmol/l FITC-labeled EJ1 (shown in A-C and C′).”

The subject of a further assay is CaMKII. Put plainly: CaMKII phosphorylation, immunoblot in MDA-MB-468 cells. The following applies: MDA-MB-468, EGF or ionomycin, 15 minutes. Here is the method: (a) MDA-MB-468 cells were treated with either 20 μmol/l CP (A-D) or 20 μmol/l EJ1 (E-H) for 0 minutes (A, E), 15 minutes (B, F), 60 minutes (C, G), or 16 hours (D, H). […] (b) BxPC3 cells were serum starved overnight, then treated with 20 μmol/l EJ1 and 50 ng/ml Texas-Red-labeled EGF, and imaged for 30 minutes with an Olympus IX71 deconvolution microscope. Panels A-F are bright field images, D′-F′ are red channel images (Texas-Red-labeled EGF). […] (c) Diagram depicts Ca^2+/CaM-regulated signaling pathway, and inhibitors acting at different targets are indicated. (d) MDA-MB-468 cells were pretreated with 50 μmol/l W-13 (D-F), 10 μmol/l ML-7 (G-I), or 10 μmol/l Y-27632 (J-L) in complete medium at 37° C. for 30 minutes and then treated with vehicle, 20 μmol/l CP, or 20 μmol/l EJ1 in combination with W-13, ML-7, or Y-27632 in complete medium at 37° C. for 15 minutes. Images represent the bright field images. […] Error bars, mean±SD. (f) MDA-MB-468 cells were either in serum-free medium (SF) or stimulated with 100 ng/ml EGF (EGF) and then incubated with water (Vehicle), 20 μmol/l CP, 20 μmol/l EJ1, 2 μmol/l ionomycin, 50 μmol/l W-13, 100 μmol/l KN-93, or EJ1 in combination with ionomycin for 15 minutes. Lysates were immunoblotted with antibodies as indicated. […] Error bars, mean±SD. […]

With `CC(=O)N[C@@H](CS)C(=O)O` [NAC, N-acetyl cysteine], in the assay with MDA-MB-468 cells [1], the “intracellular ROS levels (DCF fluorescence)” value is on record as “significantly reduced EJ1-induced ROS levels”. Further, in the assay with MDA-MB-468 cells [2], the “effect of co-treatment on EJ1-induced loss of cell viability (MTT)” value is “significantly rescue EJ1-induced cell death”.

Regarding `C[C@H](CCC(=O)O)C[C@H](C)C[C@H](C)C(=O)/C=C(\O)[C@H](C)C[C@H](C)C/C=C/[C@@H](C)[C@@H](O)[C@@H](C)[C@@H](O)C[C@@H]1CC[C@@](C)([C@H]2CC[C@@](C)([C@@H](C)O)O2)O1` [ionomycin], in the assay on CaMKII, the CaMKII phosphorylation entry was “induced CaMKII phosphorylation”.
